Measurements as given in ChEMBL document CHEMBL5512630, “The mechanism of UNC-51-like kinase 1 and the applications of small molecule modulators in cancer treatment” (Eur J Med Chem, 2024).

How the values were obtained:
[1] = test system: Non-small cell lung cancer cell line; assay: Antiproliferative activity against Non-small cell lung cancer cells (unknown origin); assay type: functional, cell-based
[2] = target: T1, Serine/threonine-protein kinase ULK1 (Homo sapiens) (UniProt O75385); assay: Inhibition of ULK1 (unknown origin) relative to control; details: concentration not given here
T1 sequence (whole entry): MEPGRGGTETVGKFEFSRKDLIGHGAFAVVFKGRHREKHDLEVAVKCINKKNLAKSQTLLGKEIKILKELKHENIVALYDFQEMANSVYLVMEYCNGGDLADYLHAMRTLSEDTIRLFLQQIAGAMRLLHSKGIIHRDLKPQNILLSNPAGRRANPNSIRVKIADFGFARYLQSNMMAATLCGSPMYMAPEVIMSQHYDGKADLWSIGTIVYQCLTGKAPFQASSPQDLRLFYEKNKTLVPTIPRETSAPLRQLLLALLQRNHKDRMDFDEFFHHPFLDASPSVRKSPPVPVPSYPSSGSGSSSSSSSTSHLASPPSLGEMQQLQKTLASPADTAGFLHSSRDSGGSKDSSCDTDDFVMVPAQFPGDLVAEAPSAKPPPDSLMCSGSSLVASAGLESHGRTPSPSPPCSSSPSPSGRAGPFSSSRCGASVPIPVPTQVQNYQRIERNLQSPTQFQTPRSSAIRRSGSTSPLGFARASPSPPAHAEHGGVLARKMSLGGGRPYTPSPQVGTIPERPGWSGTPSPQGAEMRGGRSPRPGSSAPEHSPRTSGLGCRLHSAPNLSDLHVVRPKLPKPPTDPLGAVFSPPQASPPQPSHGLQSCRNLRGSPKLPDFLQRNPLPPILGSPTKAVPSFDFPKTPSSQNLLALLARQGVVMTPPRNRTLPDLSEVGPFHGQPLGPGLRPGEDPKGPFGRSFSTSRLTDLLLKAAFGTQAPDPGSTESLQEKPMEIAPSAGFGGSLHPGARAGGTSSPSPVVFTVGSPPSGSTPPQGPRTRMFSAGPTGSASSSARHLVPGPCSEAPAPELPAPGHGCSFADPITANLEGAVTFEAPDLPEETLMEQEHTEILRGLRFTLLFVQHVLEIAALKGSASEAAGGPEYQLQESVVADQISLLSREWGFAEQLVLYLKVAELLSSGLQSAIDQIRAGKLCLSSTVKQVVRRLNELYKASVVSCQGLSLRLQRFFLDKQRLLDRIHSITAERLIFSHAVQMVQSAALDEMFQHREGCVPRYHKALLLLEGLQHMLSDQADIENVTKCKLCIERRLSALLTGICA

Row | inhibition [2] [%] | Compound | IC50 [1] [nM]
1 |  | C=CC(=O)Nc1cc(Nc2nccc(-c3cn(C)c4ccccc34)n2)c(OC)cc1N(C)CCN(C)C [OSIMERTINIB] | 41
2 | 75 | O=c1c(O)c(-c2ccc(O)c(O)c2)oc2cc(O)ccc12 | 
